Measurements taken from patent US12649750B2, “Macrocyclic compounds, compositions, and methods of using thereof” (Sionna Therapeutics Inc., priority 2022, dated 2026).
Values belong to the molecule of their own block, whether it stands above or below them.

Legend:
[1] = target: T1, CFTR (Homo sapiens, UniProt P13569, DEL508-508); assay: TECC24 AUC fold over DMSO @10 μM, CFTR-mediated transepithelial chloride transport in CF-HBE cells; format: cell-based; settings: test agent AUC divided by DMSO vehicle AUC, primary CF-HBE cells, ΔF508 homozygous donor, 48 hours incubation
T1 construct: Primary human bronchial epithelial cells from a ΔF508 homozygous CF donor; host or cells: primary human bronchial epithelial cells (CF-HBE), ΔF508 homozygous donor
T1 sequence (P13569 with tags, fused parts or gaps DEL508-508): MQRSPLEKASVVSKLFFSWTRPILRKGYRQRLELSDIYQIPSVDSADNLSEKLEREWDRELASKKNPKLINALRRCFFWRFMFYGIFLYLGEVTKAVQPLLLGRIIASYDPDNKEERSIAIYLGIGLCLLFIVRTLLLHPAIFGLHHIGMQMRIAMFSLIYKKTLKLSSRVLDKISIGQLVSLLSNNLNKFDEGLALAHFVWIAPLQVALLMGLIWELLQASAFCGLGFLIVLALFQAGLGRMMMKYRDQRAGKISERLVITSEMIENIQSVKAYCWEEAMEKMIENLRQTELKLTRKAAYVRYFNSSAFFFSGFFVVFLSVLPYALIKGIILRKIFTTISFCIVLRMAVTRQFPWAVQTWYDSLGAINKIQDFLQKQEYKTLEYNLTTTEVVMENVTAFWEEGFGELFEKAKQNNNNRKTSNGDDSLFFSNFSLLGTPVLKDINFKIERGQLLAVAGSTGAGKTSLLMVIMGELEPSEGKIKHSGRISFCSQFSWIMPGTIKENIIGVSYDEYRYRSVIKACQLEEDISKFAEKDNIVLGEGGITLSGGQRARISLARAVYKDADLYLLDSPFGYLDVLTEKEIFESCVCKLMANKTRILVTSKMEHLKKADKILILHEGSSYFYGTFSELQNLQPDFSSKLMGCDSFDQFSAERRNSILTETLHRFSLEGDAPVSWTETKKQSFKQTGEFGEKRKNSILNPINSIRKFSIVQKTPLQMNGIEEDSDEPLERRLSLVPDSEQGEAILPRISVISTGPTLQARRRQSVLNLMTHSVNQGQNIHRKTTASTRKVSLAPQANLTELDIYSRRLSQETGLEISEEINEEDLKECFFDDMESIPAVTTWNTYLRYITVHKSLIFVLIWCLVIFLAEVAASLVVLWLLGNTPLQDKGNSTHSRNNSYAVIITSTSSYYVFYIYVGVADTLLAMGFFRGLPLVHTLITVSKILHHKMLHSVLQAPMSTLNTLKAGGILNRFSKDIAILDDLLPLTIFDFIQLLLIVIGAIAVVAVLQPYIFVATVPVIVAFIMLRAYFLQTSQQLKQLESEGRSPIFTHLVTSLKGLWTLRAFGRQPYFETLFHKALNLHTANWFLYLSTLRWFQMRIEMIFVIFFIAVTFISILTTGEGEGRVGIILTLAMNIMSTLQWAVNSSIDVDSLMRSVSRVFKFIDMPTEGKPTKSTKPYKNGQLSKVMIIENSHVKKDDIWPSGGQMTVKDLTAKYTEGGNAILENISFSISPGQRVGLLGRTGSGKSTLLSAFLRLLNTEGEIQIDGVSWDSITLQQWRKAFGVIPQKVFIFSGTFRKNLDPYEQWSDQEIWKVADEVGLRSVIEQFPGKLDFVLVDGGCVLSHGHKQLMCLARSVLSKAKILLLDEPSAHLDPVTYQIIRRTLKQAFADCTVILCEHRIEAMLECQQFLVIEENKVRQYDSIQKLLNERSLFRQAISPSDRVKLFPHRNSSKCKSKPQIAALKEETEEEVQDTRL
Method: Example 387. TECC24 AUC Fold Over DMSO @10 μM
The effects of a test agent on CFTR-mediated transepithelial chloride transport is measured using TECC24 recording analysis. Test agents are solubilized in DMSO. Solubilized test agents are mixed with incubation medium containing DMEM/F12, Ultroser G (2%; Crescent Chemical, catalog #67042), Hyclone Fetal Clone II (2%; GE Healthcare, catalog #SH30066.02), bovine brain extract (0.25%; Lonza, catalog #CC-4098), insulin (2.5 μg/mL), IL-13 (10 ng/mL), hydrocortisone (20 nM), transferrin (2.5 μg/mL), triiodothyronine (500 nM), ethanolamine (250 nM), epinephrine (1.5 μM), phosphoethanolamine (250 nM), and retinoic acid (10 nM). Primary human bronchial epithelial cells from a ΔF508 homozygous CF donor (CF-HBE cells; from University of North Carolina Cystic Fibrosis Tissue Procurement Center), grown on Transwell HTS 24-well cell culture inserts (Costar, catalog #3378), are exposed to test agents or controls dissolved in incubation medium. The CF-HBE cells are cultured at 36.5° C. for 48 hours before TECC24 recordings are performed in the presence or absence of test agent, a positive control or vehicle (DMSO).
Following incubation, the transwell cell culture inserts containing the test agent or control-treated CF-HBE cells are loaded onto a TECC24 apparatus (TECC v7 or MTECC v2; EP Design) to record the transepithelial voltage (VT) and resistance (TEER) using 4 AgCl electrodes per well configured in current-clamp mode. The apical and basolateral bath solutions both contain (in mM) 140 NaCl, 5 KCl, 2 CaCl2, 1 MgCl2, 10 Hepes, and 10 glucose (adjusted to pH 7.4 with NaOH). To inhibit basal Na+ absorption, the ENaC inhibitor benzamil (10 μM) is added to the bath. Then, the adenylate cyclase activator, forskolin (10 μM), is added to the bath to activate CFTR. The forskolin-stimulated Cl— transport is halted by addition of CFTR inhibitor-172 (20 μM) to the bath at the end of the experiment to confirm specificity. VT and TEER recordings are digitally acquired at routine intervals using TECC or MTECC software (EP Design). VT and TEER are transformed into equivalent transepithelial Cl— current (IEQ), and the Area Under the Curve (AUC) of the IEQ time course between forskolin and CFTR inhibitor-172 addition is generated using Excel (Microsoft). Efficacy is expressed as the ratio of the test agent AUC divided by vehicle AUC. EC50s based on AUC are generated using the non-linear regression log(agonist) vs. response function in Prism software (Graphpad) with HillSlope fixed=1.
If a test agent increases the AUC of the forskolin-stimulated IEQ relative to vehicle in CF-HBE cells, and this increase is inhibited by CFTR inhibitor-172, then the test agent is considered a CFTR corrector. TECC assay efficacy is expressed as the ratio of the test agent AUC divided by DMSO vehicle AUC. As set forth in Table 2 below, a TECC value less than 12 is marked “A”; a value between 12-20 is marked “B”; a value between 20 and 80 is marked “C”. […]

[2] = target: T2, NBD1 (Homo sapiens, UniProt P13569); assay: Aggregation analysis using differential static light scattering (DSLS), thermal stability of NBD1 (ΔTagg); format: binding; settings: ΔTagg versus DMSO control, NBD1 0.2 mg/ml
T2 construct: Purified recombinant NBD1 was produced using previously described methods; made in house
T2 sequence (P13569 423-646 limits assumed): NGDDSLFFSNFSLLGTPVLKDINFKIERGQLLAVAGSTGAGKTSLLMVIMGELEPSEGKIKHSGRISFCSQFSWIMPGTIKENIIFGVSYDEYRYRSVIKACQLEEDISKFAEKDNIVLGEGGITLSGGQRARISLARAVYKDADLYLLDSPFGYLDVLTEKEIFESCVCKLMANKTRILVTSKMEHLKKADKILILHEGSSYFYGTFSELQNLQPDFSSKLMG
Procedure, shortened: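 Differential static light scattering read from 25° C. to 70° C. every 0.5° C., ramp 1° C./min, on recombinant NBD1 (0.2 mg/ml; Tris/NaCl/MgCl2 buffer with 2 mM ATP, 2 mM DTT, pH 7.6, 1% glycerol) plus compound. Reported ΔTagg subtracts averaged DMSO Tagg from inflection-point Tagg; categories A ≤5, B >5-10, C >10-25° C.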

SMILES: CC(O)Cn1nc2nc1-c1cc(ccc1F)Oc1c(F)cc3[nH]ccc3c1CCS(=O)(=O)CC(C)(C)CCC[C@]2(C)c1cccc(C[C@@H](C)C(=O)O)c1 (mixture of isomers) [Compound 219, (2R)-3-[3-[(6R)-22,28-Difluoro-3-(2-hydroxypropyl)-6,10,10-trimethyl-12,12-dioxo-24-oxa-12λ6-thia-3,4,19,30-tetrazapentacyclo[23.3.1.12,5.015,23.016,20]triaconta-1(29),2(30),4,15,17,20,22,25,27-nonaen-6-yl]phenyl]-2-methyl-propanoic acid]
TECC (AUC, 10 μM) [1]: C (a value between 20 and 80 is marked “C”)
DSLS 3D (100 μM ΔT) [2]: C (a value greater than 10 °C and less than or equal to 25 °C is marked “C”)

SMILES: C[C@H](Cc1cccc(C2(C)CCCC(C)(C)CS(=O)(=O)CCc3c(c(F)cc4[nH]ccc34)Oc3ccc(F)c(c3)-c3ccn2n3)c1)C(=O)O (mixture of isomers) [Compound 230, (2R)-3-[3-(22,28-difluoro-6,10,10-trimethyl-12,12-dioxo-24-oxa-12λ6-thia-5,19,30-triazapentacyclo[23.3.1.12,5.015,23.016,20]triaconta-1(29),2(30),3,15,17,20,22,25,27-nonaen-6-yl)phenyl]-2-methyl-propanoic Acid]
TECC (AUC, 10 μM) [1]: C (a value between 20 and 80 is marked “C”)
DSLS 3D (100 μM ΔT) [2]: C (a value greater than 10 °C and less than or equal to 25 °C is marked “C”)

TECC (AUC, 10 μM) [1]: B (a value between 12-20 is marked “B”)
SMILES: C[C@@H](Cc1cccc([C@@]2(C)CCCC(C)(C)CS(=O)(=O)CCc3c(c(F)cc4[nH]ccc34)C(=O)c3ccnc(c3)-c3nc2nn3C)c1)C(=O)O (mixture of isomers) [Compound 254, (2S)-2-Methyl-3-[3-[rac-(6R)-22-fluoro-3,6,10,10-tetramethyl-12,12,24-trioxo-12λ6-thia-3,4,19,28,30-pentazapentacyclo[23.3.1.12,5.015,23.016,20]triaconta-1(29),2(30),4,15,17,20,22,25,27-nonaen-6-yl]phenyl]propanoic Acid]
DSLS 3D (100 μM ΔT) [2]: C (a value greater than 10 °C and less than or equal to 25 °C is marked “C”)

SMILES: CC1(C)CCCC(c2cccc(CCC(=O)O)c2)n2ncc(C#N)c2-c2cc(ccc2F)Oc2c(F)cc3[nH]ccc3c2CCS(=O)(=O)C1 (racemic) [Compound 22A, 3-[3-(3-cyano-23,29-difluoro-11,11-dimethyl-13,13-dioxo-25-oxa-13lambda6-thia-5,6,20-triazapentacyclo[24.3.1.02,6.016,24.017,21]triaconta-1(30),2,4,16,18,21,23,26,28-nonaen-7-yl)phenyl]propanoic acid]
TECC (AUC, 10 μM) [1]: A (a TECC value less than 12 is marked “A”)
DSLS 3D (100 μM ΔT) [2]: A (an ΔTagg value less than or equal to 5 °C is marked “A”)

SMILES: Cn1nc2nc1-c1cc(ccc1F)Oc1c(F)cc3[nH]ccc3c1CCS(=O)(=O)CC(C)(C)CCCC2(C)c1cccc(CCC(=O)O)c1 (racemic) [Compound 56, 3-[3-(22,28-Difluoro-3,6,10,10-tetramethyl-12,12-dioxo-24-oxa-12lambda6-thia-3,4,19,30-tetrazapentacyclo[23.3.1.12,5.015,23.016,20]triaconta-1(29),2(30),4,15,17,20,22,25,27-nonaen-6-yl)phenyl]propanoic acid]
TECC (AUC, 10 μM) [1]: A (a TECC value less than 12 is marked “A”)
DSLS 3D (100 μM ΔT) [2]: C (a value greater than 10 °C and less than or equal to 25 °C is marked “C”)

TECC (AUC, 10 μM) [1]: B (a value between 12-20 is marked “B”)
SMILES: Cc1cn2nc1-c1cc(ccc1F)Oc1c(F)cc3[nH]ccc3c1CCS(=O)(=O)CC(C)(C)CCCC2c1cccc(CCC(=O)O)c1 (racemic) [Compound 66, 3-[3-(22,28-Difluoro-3,10,10-trimethyl-12,12-dioxo-24-oxa-12λ6-thia-5,19,30-triazapentacyclo[23.3.1.12,5.015,23.016,20]triaconta-1(29),2(30),3,15,17,20,22,25,27-nonaen-6-yl)phenyl]propanoic Acid]
DSLS 3D (100 μM ΔT) [2]: C (a value greater than 10 °C and less than or equal to 25 °C is marked “C”)

SMILES: Cn1nc2nc1-c1cc(ccc1F)Oc1c(F)cc3[nH]ccc3c1CCS(=O)(=O)/C=C(\F)C(C)(C)CCC2(C)c1cccc(CCC(=O)O)c1 (racemic) [Compound 94, 3-[3-[(10Z)-10,22,28-Trifluoro-3,6,9,9-tetramethyl-12,12-dioxo-24-oxa-12lambda6-thia-3,4,19,30-tetrazapentacyclo-[23.3.1.12,5.015,23.016,20]triaconta-1(29),2(30),4,10,15,17,20,22,25,27-decaen-6-yl]phenyl]propanoic Acid]
TECC (AUC, 10 μM) [1]: A (a TECC value less than 12 is marked “A”)
DSLS 3D (100 μM ΔT) [2]: A (an ΔTagg value less than or equal to 5 °C is marked “A”)

SMILES: Cn1nc2nc1-c1cc(ccc1F)Cc1c(F)cc3[nH]ccc3c1CCS(=O)(=O)CC(C)(C)CCCC2(C)c1cccc(/C=C/C(=O)O)c1 (racemic) [Compound 167, (E)-3-[3-(22,28-Difluoro-3,6,10,10-tetramethyl-12,12-dioxo-12λ6-thia-3,4,19,30-tetrazapentacyclo[23.3.1.12,5.015,23.016,20]triaconta-1(29),2(30),4,15,17,20,22,25,27-nonaen-6-yl)phenyl]prop-2-enoic Acid]
TECC (AUC, 10 μM) [1]: A (a TECC value less than 12 is marked “A”)
DSLS 3D (100 μM ΔT) [2]: C (a value greater than 10 °C and less than or equal to 25 °C is marked “C”)

SMILES: Cn1nc2nc1-c1cc(ccc1F)Oc1c(F)cc3[nH]ccc3c1CCS(=O)(=O)CC(C)(C)CCCC2(C)c1cccc(/C=C2\NC(=O)NC2=O)c1 (racemic) [Compound 174, (5Z)-5-[[3-(22,28-Difluoro-3,6,10,10-tetramethyl-12,12-dioxo-24-oxa-12λ6-thia-3,4,19,30-tetrazapentacyclo[23.3.1.12,5.015,23.016,20]-triaconta-1(29),2(30),4,15,17,20,22,25,27-nonaen-6-yl)phenyl]methylene]imidazolidine-2,4-dione]
TECC (AUC, 10 μM) [1]: A (a TECC value less than 12 is marked “A”)
DSLS 3D (100 μM ΔT) [2]: C (a value greater than 10 °C and less than or equal to 25 °C is marked “C”)

SMILES: Cn1nc2nc1-c1cc(ccn1)Oc1c(F)cc3[nH]ccc3c1CCS(=O)(=O)CC(C)(C)CCC[C@]2(C)c1cccc(CCC(=O)O)c1 (racemic) [Compound 228, 3-[3-[rac-(6R)-22-fluoro-3,6,10,10-tetramethyl-12,12-dioxo-24-oxa-12λ6-thia-3,4,19,28,30-pentazapentacyclo[23.3.1.12,5.015,23.016,20]triaconta-1(29),2(30),4,15,17,20,22,25,27-nonaen-6-yl]phenyl]propanoic acid]
TECC (AUC, 10 μM) [1]: C (a value between 20 and 80 is marked “C”)
DSLS 3D (100 μM ΔT) [2]: C (a value greater than 10 °C and less than or equal to 25 °C is marked “C”)

SMILES: C[C@@H](Cc1cccc([C@@]2(C)CCCC(C)(C)CS(=O)(=O)CCc3c(c(F)c(F)c4[nH]ccc34)Sc3ccc(F)c(c3)-c3nc2nn3C)c1)C(=O)O (racemic) [Compound 259, (2S)-2-methyl-3-[3-[(6R)-21,22,28-trifluoro-3,6,10,10-tetramethyl-12,12-dioxo-12λ6,24-dithia-3,4,19,30-tetrazapentacyclo[23.3.1.12,5.015,23.016,20]triaconta-1(29),2(30),4,15,17,20,22,25,27-nonaen-6-yl]phenyl]propanoic Acid]
TECC (AUC, 10 μM) [1]: C (a value between 20 and 80 is marked “C”)
DSLS 3D (100 μM ΔT) [2]: C (a value greater than 10 °C and less than or equal to 25 °C is marked “C”)
